These results are taken from patent US20030162661A1, “2,4-Diamino-1,3,5-triazines, their preparation, and their use as herbicides and plant growth regulators” (priority 1998, published 2003).

Each structure is given as a SMILES string.

For experiment [1], the system named is harmful plants such as Stellaria media, Lolium multiflorum, Amaranthus retroflexus, Sinapis alba, Avena sativa and Setaria viridis. Nature of the experiment: Pre-emergence effect on weeds (greenhouse pot test, visual scoring).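 Also: scored as plant damage or reduced emergence.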 It counts as in vivo. The settings on record: applied pre-emergence at an application rate of 1 kg or less of active substance per hectare; scored visually after 3 to 4 weeks vs untreated controls. The text has this: 1 Pre-emergence Effect on Weeds
Seeds or rhizome pieces of monocotyledonous and dicotyledonous weeds plants are placed in sandy loam soil in plastic pots and covered with soil. The compounds according to the invention which are formulated in the form of wettable powders or emulsion concentrates are then applied to the surface of the soil cover in the form of an aqueous suspension or emulsion at an application rate of 600 to 800 l of water/ha (converted), in various dosages.

The subject of experiment [2] is harmful plants such as Sinapis alba, Echinochloa crus- galli, Lolium multiflorum, Stellaria media, Cyperus iria, Amaranthus retroflexus, Setaria viridis and …. Briefly: Post-emergence effect on weeds (greenhouse pot test, visual scoring). In kind it is in vivo. The settings on record: applied post-emergence (three-leaf stage) at an application rate of 1 kg and less of active substance per hectare; scored visually after about 3 to 4 weeks vs untreated controls. The method, then: 2. Post-emergence Effect on Weeds
Seeds or rhizome pieces of monocotyledonous and dicotyledonous weeds are placed in sandy loam soil in plastic pots, covered with soil and grown in the greenhouse under good growth conditions. Three weeks after sowing, the test plants are treated in the three-leaf stage. The compounds according to the invention which are formulated as wettable powders or as emulsion concentrates are sprayed in various dosages on the green parts of the plants at an application rate of 600 to 800 l of water/ha (converted). After the test plants have remained in the greenhouse for about 3 to 4 weeks under ideal growth conditions, the effect of the preparations is scored visually by comparison with untreated controls. The agents according to the invention also have a good herbicidal post-emergence action against a broad range of economically important grass weeds and dicotyledonous weeds.

For the molecule `Cc1cccc(CCC(Nc2nc(N)nc(C(C)C)n2)C2CC2)c1` (stereo not drawn) [Example 9-12], the “herbicidal action against harmful plants, pre-emergence” value (shortened to “herbicidal action … pre-emergence”) in experiment [1] is given as “very good herbicidal action”. The “herbicidal action against harmful plants, post-emergence” value (“herbicidal action … post-emergence” below) in experiment [2] is “very good herbicidal action”.

Turning to `CC(F)c1nc(N)nc(NC(CCCc2ccccc2)C2CC2)n1` (stereo not drawn) [Example 22-3], in experiment [1], the “herbicidal action … pre-emergence” value is “very good herbicidal action”. Moreover, the “herbicidal action … post-emergence” value in experiment [2] is recorded as “very good herbicidal action”.

`Cc1cccc(CCC(Nc2nc(N)nc(CC(C)C)n2)C2CC2)c1` (stereo not drawn) [Example 9-15]: the “herbicidal action … pre-emergence” value in experiment [1] is reported as “very good herbicidal action”. Further, in experiment [2], the “herbicidal action … post-emergence” value is listed as “very good herbicidal action”.

Turning to `Cc1cccc(CCC(CC2CC2)Nc2nc(N)nc(C(C)(C)F)n2)c1` (stereo not drawn) [Example 32-10], in experiment [1], the “herbicidal action … pre-emergence” value is listed as “very good herbicidal action”. Besides, in experiment [2], the “herbicidal action … post-emergence” value is given as “very good herbicidal action”.

For the molecule `CC(C)(F)c1nc(N)nc(NC(C=Cc2ccccc2)C2CC2)n1` (stereo not drawn) [Example 44-1], the “herbicidal action … pre-emergence” value in experiment [1] is “very good herbicidal action”. Besides, in experiment [2], the “herbicidal action … post-emergence” value is recorded as “very good herbicidal action”.

On to `Cc1cccc(CCCC(Nc2nc(N)nc(C(C)(C)F)n2)C2CC2)c1` (stereo not drawn) [Example 22-27], for which, in experiment [1], the “herbicidal action … pre-emergence” value is recorded as “very good herbicidal action”. For the same molecule, the “herbicidal action … post-emergence” value in experiment [2] is “very good herbicidal action”.

With `CC(C)(F)c1nc(N)nc(NC(CCc2cccc(Cl)c2)C2CC2)n1` (stereo not drawn) [Example 9-8], in experiment [1], the “herbicidal action … pre-emergence” value is listed as “very good herbicidal action”. For the same molecule, in experiment [2], the “herbicidal action … post-emergence” value is listed as “very good herbicidal action”.

Consider `CC(C)c1nc(N)nc(NC(CCc2cccc(F)c2)C2CCC2)n1` (stereo not drawn) [Example 4-27], for which the “herbicidal action … pre-emergence” value in experiment [1] is “very good herbicidal action”. Also, the “herbicidal action … post-emergence” value in experiment [2] was “very good herbicidal action”.

Regarding `CC(C)c1nc(N)nc(NC(C=Cc2ccccc2)C2CC2)n1` (stereo not drawn) [Example 44-2], in experiment [1], the “herbicidal action … pre-emergence” value is reported as “very good herbicidal action”. For the same molecule, the “herbicidal action … post-emergence” value in experiment [2] is listed as “very good herbicidal action”.

Regarding `COc1cccc(CCCC(Nc2nc(N)nc(C(C)C)n2)C2CCC2)c1` (stereo not drawn) [Example 28-20], in experiment [1], the “herbicidal action … pre-emergence” value is given as “very good herbicidal action”. Further, the “herbicidal action … post-emergence” value in experiment [2] is given as “very good herbicidal action”.

In the case of `CC(C)(F)c1nc(N)nc(NC(CCc2ccccc2)C2CC2(C)C)n1` (stereo not drawn) [Example 10-1], in experiment [1], the “herbicidal action … pre-emergence” value was “very good herbicidal action”. For the same molecule, the “herbicidal action … post-emergence” value in experiment [2] is “very good herbicidal action”.

Take `Nc1nc(NC(CCCCc2ccccc2)C2CCC2)nc(C(F)(F)F)n1` (stereo not drawn) [Example 31-2]: the “herbicidal action … pre-emergence” value in experiment [1] was “very good herbicidal action”. The “herbicidal action … post-emergence” value in experiment [2] is on record as “very good herbicidal action”.

In the case of `CC(C)Cc1nc(N)nc(NC(CCc2ccccc2)C2CC2)n1` (stereo not drawn) [Example 9-1], in experiment [1], the “herbicidal action … pre-emergence” value is reported as “very good herbicidal action”. Further, the “herbicidal action … post-emergence” value in experiment [2] was “very good herbicidal action”.

As to `CC(C)(F)c1nc(N)nc(NC(CCc2cccc(Cl)c2)CC2CC2)n1` (stereo not drawn) [Example 32-6], the “herbicidal action … pre-emergence” value in experiment [1] is reported as “very good herbicidal action”. In addition, the “herbicidal action … post-emergence” value in experiment [2] is given as “very good herbicidal action”.

As to `CC(C)c1nc(N)nc(NC(CCCc2ccccc2)C2CC2)n1` (stereo not drawn) [Example 22-11], the “herbicidal action … pre-emergence” value in experiment [1] is “very good herbicidal action”. The “herbicidal action … post-emergence” value in experiment [2] is listed as “very good herbicidal action”.

Consider `CC(C)c1nc(N)nc(NC(CCc2cccc(Cl)c2)CC2CC2)n1` (stereo not drawn) [Example 32-5], for which the “herbicidal action … pre-emergence” value in experiment [1] was “very good herbicidal action”. For the same molecule, the “herbicidal action … post-emergence” value in experiment [2] is given as “very good herbicidal action”.

Regarding `CC(C)(F)c1nc(N)nc(NC(CCc2cccc(F)c2)C2CCC2)n1` (stereo not drawn) [Example 4-28], in experiment [1], the “herbicidal action … pre-emergence” value is recorded as “very good herbicidal action”. For the same molecule, in experiment [2], the “herbicidal action … post-emergence” value is “very good herbicidal action”.

Turning to `CC(C)(F)c1nc(N)nc(NC(CCc2cccc(C(F)(F)F)c2)C2CC2)n1` (stereo not drawn) [Example 9-6], the “herbicidal action … pre-emergence” value in experiment [1] was “very good herbicidal action”. Moreover, in experiment [2], the “herbicidal action … post-emergence” value is recorded as “very good herbicidal action”.

Turning to `Cc1nc(N)nc(NC(CCCc2ccccc2)C2CC2)n1` (stereo not drawn) [Example 22-8], the “herbicidal action … pre-emergence” value in experiment [1] is “very good herbicidal action”. In addition, the “herbicidal action … post-emergence” value in experiment [2] is reported as “very good herbicidal action”.

For `CC(C)(F)c1nc(N)nc(NC(CCCCc2ccccc2)C2CC2)n1` (stereo not drawn) [Example 30-2], in experiment [1], the “herbicidal action … pre-emergence” value is given as “very good herbicidal action”. The “herbicidal action … post-emergence” value in experiment [2] is listed as “very good herbicidal action”.

`CC(C)(F)c1nc(N)nc(NC(CCc2ccccc2)C2CCCC2)n1` (stereo not drawn) [Example 8-2]: in experiment [1], the “herbicidal action … pre-emergence” value is on record as “very good herbicidal action”. In addition, the “herbicidal action … post-emergence” value in experiment [2] is on record as “very good herbicidal action”.

As for `COc1cccc(CCC(Nc2nc(N)nc(C(C)C)n2)C2CC2)c1` (stereo not drawn) [Example 9-13], the “herbicidal action … pre-emergence” value in experiment [1] is on record as “very good herbicidal action”. Besides, the “herbicidal action … post-emergence” value in experiment [2] is reported as “very good herbicidal action”.

Regarding `CC(C)c1nc(N)nc(NC(CCc2cccc(Cl)c2)C2CCC2)n1` (stereo not drawn) [Example 4-10], the “herbicidal action … pre-emergence” value in experiment [1] is given as “very good herbicidal action”. Also, in experiment [2], the “herbicidal action … post-emergence” value was “very good herbicidal action”.

On to `Cc1ccccc1CCC(Nc1nc(N)nc(C(C)C)n1)C1CCC1` (stereo not drawn) [Example 4-26], for which the “herbicidal action … pre-emergence” value in experiment [1] is recorded as “very good herbicidal action”. Moreover, in experiment [2], the “herbicidal action … post-emergence” value is listed as “very good herbicidal action”.

On to `CC(C)(F)c1nc(N)nc(NC(CCCc2cccc(F)c2)C2CC2)n1` (stereo not drawn) [Example 22-24], for which, in experiment [1], the “herbicidal action … pre-emergence” value is “very good herbicidal action”. In addition, the “herbicidal action … post-emergence” value in experiment [2] is listed as “very good herbicidal action”.

On to `CC(C)Cc1nc(N)nc(NC(CCCc2ccccc2)C2CCC2)n1` (stereo not drawn) [Example 28-5], for which the “herbicidal action … pre-emergence” value in experiment [1] was “very good herbicidal action”. In addition, the “herbicidal action … post-emergence” value in experiment [2] is reported as “very good herbicidal action”.

Regarding `CC(C)c1nc(N)nc(NC(CCCc2cccc(Cl)c2)C2CCC2)n1` (stereo not drawn) [Example 28-13], the “herbicidal action … pre-emergence” value in experiment [1] was “very good herbicidal action”. The “herbicidal action … post-emergence” value in experiment [2] is listed as “very good herbicidal action”.

For `CC(C)c1nc(N)nc(NC(CCc2cccc(C(F)(F)F)c2)C2CC2)n1` (stereo not drawn) [Example 9-11], in experiment [1], the “herbicidal action … pre-emergence” value is given as “very good herbicidal action”. In experiment [2], the “herbicidal action … post-emergence” value is “very good herbicidal action”.

Consider `COc1cccc(CCCC(Nc2nc(N)nc(C(C)(C)F)n2)C2CCC2)c1` (stereo not drawn) [Example 28-21], for which the “herbicidal action … pre-emergence” value in experiment [1] is reported as “very good herbicidal action”. The “herbicidal action … post-emergence” value in experiment [2] was “very good herbicidal action”.

As for `Cc1cccc(CCC(Nc2nc(C)nc(N)n2)C2CCC2)c1` (stereo not drawn) [Example 4-29, 2-Amino-6-methyl-4-[3-(3-methylphenyl)-1-cyclobutyl-1-propylamino]1,3,5-triazine], the “herbicidal action … pre-emergence” value in experiment [1] was “very good herbicidal action”. The “herbicidal action … post-emergence” value in experiment [2] was “very good herbicidal action”.

Regarding `CC(C)(F)c1nc(N)nc(NC(CCc2ccccc2)C2CCOC2)n1` (stereo not drawn) [Example 20-1], the “herbicidal action … pre-emergence” value in experiment [1] is given as “very good herbicidal action”. Moreover, the “herbicidal action … post-emergence” value in experiment [2] is “very good herbicidal action”.

As to `Nc1nc(NC(CCc2ccccc2)C2CC2)nc(-c2ccccc2)n1` (stereo not drawn) [Example 9-19], the “herbicidal action … pre-emergence” value in experiment [1] is “very good herbicidal action”. Also, the “herbicidal action … post-emergence” value in experiment [2] is listed as “very good herbicidal action”.

Consider `CC(C)c1nc(N)nc(NC(CCCc2ccccc2)C2CCC2)n1` (stereo not drawn) [Example 28-4], for which the “herbicidal action … pre-emergence” value in experiment [1] is “very good herbicidal action”. Also, in experiment [2], the “herbicidal action … post-emergence” value is given as “very good herbicidal action”.

As for `CC(C)(F)c1nc(N)nc(NC(CCc2ccccc2)CC2CC2)n1` (stereo not drawn) [Example 32-2], the “herbicidal action … pre-emergence” value in experiment [1] was “very good herbicidal action”. Besides, the “herbicidal action … post-emergence” value in experiment [2] was “very good herbicidal action”.

With `CC(C)(F)c1nc(N)nc(NC(CCCc2cccc(Cl)c2)C2CCC2)n1` (stereo not drawn) [Example 28-14], the “herbicidal action … pre-emergence” value in experiment [1] is “very good herbicidal action”. Further, the “herbicidal action … post-emergence” value in experiment [2] is “very good herbicidal action”.

Regarding `Cc1cccc(CCCC(Nc2nc(N)nc(C(C)C)n2)C2CCC2)c1` (stereo not drawn) [Example 28-17], in experiment [1], the “herbicidal action … pre-emergence” value is “very good herbicidal action”. In addition, the “herbicidal action … post-emergence” value in experiment [2] is on record as “very good herbicidal action”.
